Earlier results on seven compounds are cited in patent US20230405112A1, “PHARMACEUTICAL COMPOSITION, PHARMACEUTICAL COMBINED FORMULATION, AND COMBINED FORMULATION KIT FOR PREVENTION OR TREATMENT OF CHRONIC HEPATITIS B, EACH COMPRISING, AS ACTIVE INGREDIENT, ORAL ANTIVIRAL AGENT AND THERAPEUTIC VACCINE INCLUDING LIPOPEPTIDE AND POLY(I:C) ADJUVANT” (CHA VACCINE RESEARCH INSTITUTE CO., LTD, priority 2020, published 2023).

Data set [1] concerns hepatitis B virus. Particulars: after 1 year of treatment.
The subject of data set [2] is hepatitis B virus. As to conditions: Chinese patients; 7 years.
For data set [3], the system named is hepatitis B virus.
The subject of data set [4] is hepatitis B virus. The source holds these as a separate data set.
Data set [5] deals with hepatitis B virus. This is another data set of the same source.
For data set [6], the system named is virus-specific cytotoxic T lymphocytes (CTLs). As to conditions: combined with an influenza virus T cell epitope; administered to mice.
Where [7] appears, read: HBeAg(+), phase 3, 2 year results.
The mark [8] stands for this setting: baseline HBeAg(+), 1 year (week 48).
Where [9] appears, read: baseline HBeAg(+), 2 years (week 96).
The mark [10] stands for this setting: baseline HBeAg(−), 1 year (week 48).
Setting [11] is: baseline HBeAg(−), 2 years (week 96).
The mark [12] stands for this setting: HBeAg(+), 3-year follow-up, (non-Asian).
Where [13] appears, read: HBeAg(+), phase 3, 1 year, (non-Asian).
Setting [14] is: all patients, 10-year follow-up.

Values joined by “and” are separate entries in the source; they are usually repeats but may differ in a detail not shown here. Equal values may be shown once. Where a name gives a salt, the structure may show the parent alone. Read-outs that look alike come from different tables or passages of the source.

With `CC(C)(C)C(=O)OCOP(=O)(COCCn1cnc2c(N)ncnc21)OCOC(=O)C(C)(C)C` [ADV, Adefovirdipivoxil], in the data set with hepatitis B virus [1] (HBeAg(+) patients), the ALT nomalisatioin was 48~54%, the Anti-Hbe-seroconversion is given as 12~18%, the “HBV DNA <60~80 IU/ml” value is given as 13~21% and the “HBs Ag loss” value was 0%. In the data set on hepatitis B virus [1] (HBeAg(−) patients), the ALT nomalisatioin is on record as 72~77%, the “HBV DNA <60~80 IU/ml” value was 51~63% and the “HBs Ag loss” value is listed as 0%.

For `C=C1[C@H](CO)[C@@H](O)C[C@@H]1n1cnc2c(=O)[nH]c(N)nc21` [Entecavir], in the data set with hepatitis B virus [2], the “HBeAg seroconversion rate (Kaplan-meier analysis)” value is 82.1%; the “HBsAg loss (%)” value is 2.5%; the “HBsAg loss, patients” value is on record as 4 of 160. For the same compound, in the data set with hepatitis B virus [3] (5 year results), the “HBeAg seroconversion (%)” value was 23% and the “HBeAg seroconversion n/N” value is reported as 33/141. Also, in the data set on hepatitis B virus [3] (HBeAg(+), 5 year results), the “HBsAg loss (%)” value was 1.4% and the “HBsAg loss n/N” value was 2/145. Besides, in the data set on hepatitis B virus [3] (setting [7]), the “HBsAg loss (%)” value is 5%, the “HBsAg loss n/N” value is reported as 18/354, the “HBsAg seroconversion (%)” value is recorded as 2% and the “HBsAg seroconversion n/N” value is 6/354. In the data set with hepatitis B virus [3] (phase 3, 2 year results), the “HBeAg seroconversion (%)” value was 31% and the “HBeAg seroconversion n/N” value is listed as 110/354. In the data set on hepatitis B virus [1] (HBeAg(+) patients), the ALT nomalisatioin is reported as 68%, the Anti-Hbe-seroconversion is 21%, the “HBV DNA <60~80 IU/ml” value is 67% and the “HBs Ag loss” value was 2%. Besides, in the data set on hepatitis B virus [1] (HBeAg(−) patients), the ALT nomalisatioin was 78%, the “HBV DNA <60~80 IU/ml” value is recorded as 90% and the “HBs Ag loss” value is reported as 0%.

Regarding `Nc1ccn([C@@H]2CS[C@H](CO)O2)c(=O)n1` [LAM, Lamivudine], in the data set on hepatitis B virus [1] (HBeAg(+) patients), the ALT nomalisatioin is recorded as 41~72%, the Anti-Hbe-seroconversion was 16~18%, the “HBV DNA <60~80 IU/ml” value is listed as 36~44% and the “HBs Ag loss” value is recorded as 0~1%. For the same compound, in the data set with hepatitis B virus [1] (HBeAg(−) patients), the ALT nomalisatioin is 71~79%, the “HBV DNA <60~80 IU/ml” value is 72~73% and the “HBs Ag loss” value is given as 0%.

Consider `CC(C)OC(=O)[C@H](C)N[P@](=O)(CO[C@H](C)Cn1cnc2c(N)ncnc21)Oc1ccccc1` [TAF, Tenofoviralafenamide fumarate], for which, in the data set with hepatitis B virus [1] (HBeAg(+) patients), the ALT nomalisatioin is recorded as 72%, the Anti-Hbe-seroconversion is on record as 10%, the “HBV DNA <60~80 IU/ml” value is 64% and the “HBs Ag loss” value is given as 1%. In addition, in the data set with hepatitis B virus [1] (HBeAg(−) patients), the ALT nomalisatioin is 83%, the “HBV DNA <60~80 IU/ml” value was 94% and the “HBs Ag loss” value is 0%. In the data set on hepatitis B virus [4] (Total, 1 year (week 48)), the “HBeAg loss (%)” value was “(14%)”, the “HBeAg loss n/N” value is 78/565 and the “HBsAg loss n/N” value is 4/861. Also, in the data set with hepatitis B virus [4] (Total, 2 years (week 96)), the “HBeAg loss (%)” value was “(22%)”, the “HBeAg loss n/N” value is 123/565, the “HBsAg loss (%)” value is given as “(<1%)” and the “HBsAg loss n/N” value is 8/861. Besides, in the data set on hepatitis B virus [4] (baseline HBeAg(+), 1 year), the “HBeAg seroconversion (%)” value is given as “(10%)”, the “HBeAg seroconversion n/N” value is reported as 58/565, the “HBsAg seroconversion (%)” value was “(1%)” and the “HBsAg seroconversion n/N” value was 3/576. Moreover, in the data set with hepatitis B virus [4] (setting [8]), the “HBeAg loss n/N” value is reported as 78/565 and the “HBsAg loss n/N” value is 4/576. For the same compound, in the data set with hepatitis B virus [4] (baseline HBeAg(+), 2 years), the “HBeAg seroconversion (%)” value was “(18%)”, the “HBeAg seroconversion n/N” value is recorded as 99/565, the “HBsAg seroconversion (%)” value was “(1%)” and the “HBsAg seroconversion n/N” value is 6/576. Moreover, in the data set on hepatitis B virus [4] (setting [9]), the “Average reduction of HBsAg” value was −0.51 log10IU/ml, the “HBeAg loss n/N” value is reported as 123/565 and the “HBsAg loss n/N” value is 7/576. The “HBsAg seroconversion n/N” value in the data set with hepatitis B virus [4] (baseline HBeAg(−), 1 year) was 0. Besides, the “HBsAg loss n/N” value in the data set with hepatitis B virus [4] (setting [10]) is given as 0. Moreover, in the data set on hepatitis B virus [4] (baseline HBeAg(−), 2 years), the “HBsAg seroconversion (%)” value was “(<1%)” and the “HBsAg seroconversion n/N” value is listed as 1/281. Moreover, in the data set on hepatitis B virus [4] (setting [11]), the “Average reduction of HBsAg” value was −0.14 log10IU/ml, the “HBsAg loss (%)” value was “(<1%)” and the “HBsAg loss n/N” value was 1/281.

With `Cc1cn([C@@H]2C[C@@H](O)[C@H](CO)O2)c(=O)[nH]c1=O` [TBV, Telbivudine], in the data set on hepatitis B virus [1] (HBeAg(+) patients), the ALT nomalisatioin is given as 77%, the Anti-Hbe-seroconversion is listed as 22%, the “HBV DNA <60~80 IU/ml” value is given as 60% and the “HBs Ag loss” value was 0.5%. Further, in the data set on hepatitis B virus [1] (HBeAg(−) patients), the ALT nomalisatioin is reported as 74%, the “HBV DNA <60~80 IU/ml” value is 88% and the “HBs Ag loss” value was 0%.

`CC(C)OC(=O)OCOP(=O)(CO[C@H](C)Cn1cnc2c(N)ncnc21)OCOC(=O)OC(C)C` [TDF, Tenofovirdisoproxil fumarate]: the “HBeAg loss (%)” value in the data set with hepatitis B virus [5] (HBeAg(+), 3-year follow-up) was 34%; in the data set on hepatitis B virus [4] (Total, 1 year (week 48)), “(12%)”; in the data set with hepatitis B virus [4] (Total, 2 years (week 96)), “(18%)”. Besides, the “HBeAg seroconversion (%)” value is recorded as 26% in the data set with hepatitis B virus [5] (HBeAg(+), 3-year follow-up); “(8%)” in the data set with hepatitis B virus [4] (baseline HBeAg(+), 1 year); “(12%)” in the data set with hepatitis B virus [4] (baseline HBeAg(+), 2 years). For the same compound, the “HBsAg loss (%) [kaplan-meier]” value with hepatitis B virus [5] (setting [12]) is 8%; with hepatitis B virus [5] (HBeAg(+), 7-year follow-up) it was 11.8%. The “HBsAg seroconversion (%) [kaplan-meier]” value in the data set with hepatitis B virus [5] (setting [12]) was 6%; in the data set with hepatitis B virus [5] (HBeAg(+), 7-year follow-up) it was 9.7%. The “HBsAg seroconversion, n patients” value with hepatitis B virus [5] (setting [12]) is “(n = 15)”; with hepatitis B virus [5] (HBeAg(+), 7-year follow-up), “(n = 21)”. Further, the “HBeAg loss n/N” value was 84/154 in the data set with hepatitis B virus [5] (HBeAg(+), 7-year follow-up); 12/23 in the data set with hepatitis B virus [5] (HBeAg(+), 10-year follow-up); 34/285 in the data set on hepatitis B virus [4] (Total, 1 year (week 48)); 51/285 with hepatitis B virus [4] (Total, 2 years (week 96)); 34/285 in the data set with hepatitis B virus [4] (setting [8]); 51/285 with hepatitis B virus [4] (setting [9]). The “HBeAg seroconversion n/N” value is 61/154 in the data set with hepatitis B virus [5] (HBeAg(+), 7-year follow-up); 6/22 in the data set on hepatitis B virus [5] (HBeAg(+), 10-year follow-up); 32/153 with hepatitis B virus [5] (HBeAg(+), phase 3, 1 year); 23/285 in the data set on hepatitis B virus [4] (baseline HBeAg(+), 1 year); 35/285 in the data set on hepatitis B virus [4] (baseline HBeAg(+), 2 years). The “HBsAg loss, n patients” value in the data set with hepatitis B virus [5] (HBeAg(+), 7-year follow-up) was “(n = 27)”. Besides, the “HBsAg loss n/N” value is on record as 4/81 in the data set on hepatitis B virus [5] (HBeAg(+), 10-year follow-up, (non-Asian)); 5/158 in the data set on hepatitis B virus [5] (setting [13]); 0 in the data set on hepatitis B virus [5] (HBeAg(−), 3-year follow-up); 4/117 with hepatitis B virus [5] (HBeAg(−), 10-year follow-up, (non-Asian)); 0 in the data set with hepatitis B virus [5] (HBeAg(−), phase 3, 1 year); 8/198 in the data set with hepatitis B virus [5] (setting [14]). In addition, the “HBsAg loss n/N” value in the data set with hepatitis B virus [4] (Total, 1 year (week 48)) was 1 out of 428 and 1/428; in the data set on hepatitis B virus [4] (Total, 2 years (week 96)) it was 4/428; with hepatitis B virus [4] (setting [8]) it was 1/288; in the data set on hepatitis B virus [4] (setting [9]), 4/288; in the data set on hepatitis B virus [4] (setting [10]) it was 0; in the data set with hepatitis B virus [4] (setting [11]), 0. The “HBsAg seroconversion n/N” value in the data set on hepatitis B virus [5] (setting [13]) was 2/158; in the data set on hepatitis B virus [5] (HBeAg(−), 3-year follow-up), 0; in the data set with hepatitis B virus [5] (HBeAg(−), 7-year follow-up), 0; in the data set on hepatitis B virus [5] (HBeAg(−), phase 3, 1 year), 0; in the data set with hepatitis B virus [4] (baseline HBeAg(+), 1 year), 0; with hepatitis B virus [4] (baseline HBeAg(+), 2 years) it was 0. In addition, the “HBsAg seroconversion n/N” value with hepatitis B virus [4] (baseline HBeAg(−), 1 year) is 0; in the data set with hepatitis B virus [4] (baseline HBeAg(−), 2 years), 0. The “HBsAg loss (%)” value in the data set with hepatitis B virus [5] (setting [14]) is given as 4.0%; in the data set on hepatitis B virus [4] (Total, 1 year (week 48)), “(<1%)”; in the data set with hepatitis B virus [4] (Total, 2 years (week 96)), “(<1%)”. The “HBsAg loss, number of patients” value in the data set on hepatitis B virus [5] (all patients, over 7 years) was 28. Moreover, the “change of HBsAg levels” value in the data set on hepatitis B virus [5] (patients first receiving oral antiviral agent, after 2 years (96 weeks), FIG. 1) is given as “no significant change”. In addition, the ALT nomalisatioin is reported as 68% in the data set on hepatitis B virus [1] (HBeAg(+) patients) and 76% in the data set on hepatitis B virus [1] (HBeAg(−) patients). Besides, in the data set on hepatitis B virus [1] (HBeAg(+) patients), the Anti-Hbe-seroconversion is given as 21%. Besides, the results for the “HBV DNA <60~80 IU/ml” value in the data set on hepatitis B virus [1] (HBeAg(+) patients) and in the data set on hepatitis B virus [1] (HBeAg(−) patients) were 76% and 93%, respectively. The “HBs Ag loss” value in the data set with hepatitis B virus [1] (HBeAg(+) patients) was 3%; with hepatitis B virus [1] (HBeAg(−) patients), 0%. Also, the “Average reduction of HBsAg” value is −0.64 log10IU/ml in the data set with hepatitis B virus [4] (setting [9]) and −0.10 log10IU/ml with hepatitis B virus [4] (setting [11]).

Take Pam3Cys-Ser-Ser: the “virus-specific cytotoxic T lymphocytes (CTLs)” value in data set [6] is on record as “induced”.
